Experimental data as given in patent US10921397B2, “Hyperpolarized micro-NMR system and methods” (Memorial Sloan Kettering Cancer Center, priority 2016, dated 2021).

How the values were obtained:
LDH-A = assay: Western blot of LDH-A phosphorylation in K562 cells after treatment; assay type: cell-based; details: imatinib treatment, 24 hours
Description: Imatinib was purchased from Cayman Chemical.

K562 cells [1] = details: 24 hours of drug treatment, concentrations as high as 1 μM
Protocol: K562 cells were plated with a concentration of 100,000 cells/mL in 10 mL complete RPMI media. […] Two sets of four flasks (two flasks per each sample) were prepared and stored in an incubator for 24 hours. Cell number and viability were checked after 24 hours, and cells were washed with complete RPMI media once and prepared for hyperpolarization experiments.
The cell number and the viability were measured using CELLOMETER Mini cell counter (Nexcelom Bioscience); the cell suspension was mixed at 1:1 ratio with the trypan blue solution before the measurement. For each measurement, the cell suspension was diluted to make its concentration within a range of 0.8-2×10^6/mL.

K562 cells [2] = assay: Lactate concentration (pool size) in cell culture media by conventional high-field NMR spectrometer; assay type: cell-based; details: 1 μM imatinib
Protocol: Each lactate signal was acquired by a conventional high-field NMR spectrometer. All measurements were performed in triplicate. Error bars show the standard deviation.

Cc1ccc(NC(=O)c2ccc(CN3CCN(C)CC3)cc2)cc1Nc1nccc(-c2cccnc2)n1 [imatinib, Imatinib]
phosphorylation of LDH-A (LDH-A): decreased phosphorylation
cell viability (K562 cells [1]): not significantly changed
time required to make a significant change in the lactate pool size (K562 cells [2]): about 12 hours
